Key:
[1] = 24 hour pharmacokinetic analysis of serum cannabinoids after oral CBD/CBDA rich hemp paste; details: for detectability in serum of cats at any time point: 24 hour PK; for Css Ave (calculated predicted 5 half-life mean serum concentration): predicted steady state from one compartment model
Excerpt: (§1) Eight cats from a contract research laboratory (Summit Ridge Farms, Gibson, PA) were utilized for this experiment. 4 spayed female cats and 4 neutered male cats were used. […] The cat population ranged from 4.1 kg to 5.4 kg (mean weight 4.7 kg). An initial dosage of 1 g of paste was fed to each cat at zero hours. Additionally, and after the initial 24-hour pharmacokinetic assessment, treatment with 1 g of paste resumed on the next day for 6 days, twice daily at 7 am and 4 pm each day. […] Cats were fed their normal daily meal approximately 1 hour after oral paste consumption. The base of the paste was a proprietary mix of soy oil, dextrose, dried chicken liver, silica, inulin, polysorbate 60, potassium sorbate, sorbic acid, saccharin, mixed tocopherols, methylparaben, propylparaben in descending order of volume with 15% cannabinoid rich hemp oil emulsified with the product. Prior to enrollment all cats involved in the study were deemed healthy and normal based on physical examination, complete blood count and serum chemistry assessment. During the 1-week trial examination of all cats were assessed at the 1 and 4 hour time point after morning dosing. The assessment included examination for physical abnormalities and examination for adverse events including diarrhea, vomiting, lethargy, somnolence, ataxia, or abnormal behavior within the colony during treatment. Regarding the 24 hour pharmacokinetic study, two milliliters of blood was drawn via jugular venipuncture for all 8 cats prior to the initial dose and then again at 0.5, 1, 2, 4, 8 and 24 hours for a 7 point pharmacokinetic analysis. Complete blood counts, serum chemistry and serum cannabinoid concentrations were performed before the initial treatment and at the end of day 7 treatment, 6 hours after the morning treatment. Complete blood count data included white blood cells (WBC), hematocrit, hemoglobin, red blood cells (RBC), neutrophils, lymphocytes, platelets, monocytes, eosinophils, basophils). Serum biochemistry analyses included sodium, potassium, chloride, magnesium, calcium, phosphorus, albumin, total protein, globulin, urea nitrogen, creatinine, alkaline phosphatase (ALP), alanine aminotransferase (ALT), aspartate amino transferase (AST), cholesterol, total bilirubin, glucose and gamma glutamyl transferase (GGT) with a focus of this report being renal and hepatic parameters. All blood parameters measured were performed at the Cornell University Diagnostic Laboratory.
(§2) Analysis was performed using an exploratory (fit-for-purpose) method for fast measurement of thirteen cannabinoids and their metabolites at the Toxicology Research Laboratory, University of Illinois at Chicago.
Cat serum (40 μL) was mixed with 20 μL of internal standards [100 ng/mL of CBD-d3, THC-d3, THCA-d3, 7-COOH-CBD-d3, 7-OH-CBD-d5, 11-OH-THC-d3, COOH-THC-d9, and COOH-THC-Glu-d3 in water:methanol (50:50)] in a 96 well plate. Proteins were precipitated and compounds were extracted by adding 100 μL of ice-cold acetonitrile to the samples, then vortexing for 1-2 minutes and centrifuging at 4,000 rpm for 10 minutes at 4° C. Supernatants (70 μL) were mixed with 70 μL of water in a different 96 well plate, and centrifuged again. […] The column was equilibrated with mobile phase A (0.1% formic acid in water) and mobile phase B (acetonitrile) at 50% B. The compounds were eluted by a linear gradient from 50% B to […] over 6 minutes, and then held at 95% B for 1 minute. Subsequently, the column was re-equilibrated at initial composition for 1 minute at a flow rate of 0.3 mL/min. The autosampler and column temperature were set a 4 and 30° C., respectively. The compounds were detected in electrospray ionization positive and/or negative mode.

[2] = Serum cannabinoid concentrations after one week of twice daily dosing (day 7, 6 hours post morning dose) compared with predicted steady state; details: Student T-test
Excerpt: as §1, §2
Cat serum (40 μL) was mixed with 20 μL of internal standards [100 ng/mL of CBD-d3, THC-d3, THCA-d3, 7-COOH-CBD-d3, 7-OH-CBD-d5, 11-OH-THC-d3, COOH-THC-d9, and COOH-THC-Glu-d3 in water:methanol (50:50)] in a 96 well plate. Proteins were precipitated and compounds were extracted by adding 100 μL of ice-cold acetonitrile to the samples, then vortexing for 1-2 minutes and centrifuging at 4,000 rpm for 10 minutes at 4° C. Supernatants (70 μL) were mixed with 70 μL of water in a different 96 well plate, and centrifuged again. […] The compounds were detected in electrospray ionization positive and/or negative mode.

[3] = both, cat, in vivo, po, 1 g of paste
[4] = both, in vivo, po, 1 g of paste
[5] = cats, single oral 1 g paste, serum, 0-24 h, mean ± SD
[6] = cats, single oral 1 g paste, serum, mean ± SD

## C=C(C)[C@@H]1CCC(C(=O)O)=C[C@H]1c1c(O)cc(CCCCC)cc1O [7-COOH-CBD, 7-COOH cannabidiol]
[1]; cats, serum
  detectability in serum of cats at any time point: found in all cats

## C=C(C)[C@@H]1CCC(CO)=C[C@H]1c1c(O)cc(CCCCC)cc1O [7-OH-CBD, 7-OH-cannabidiol]
[1]; cats, serum
  detectability in serum of cats at any time point: either below the detectable limit for the analyte or less than half of the population showed any appreciable concentration
[1]; of the 8 cats, serum
  cats showing no detectable concentrations of this metabolite: 5

## CCCCCc1cc(O)c2c(c1)OC(C)(C)[C@@H]1CCC(CO)=C[C@@H]21 [11-OH-THC, 11-OH-tetrahydrocannabinol]
[1]; cats, serum
  detectability in serum of cats at any time point: either below the detectable limit for the analyte or less than half of the population showed any appreciable concentration

## CCCCCc1cc(O)c2c(c1)OC(C)(CCC=C(C)C)C=C2 (centres unmarked) [CBC, cannabichromene]
[1]; cats, serum
  detectability in serum of cats at any time point: either below the detectable limit for the analyte or less than half of the population showed any appreciable concentration

## C=C(C)[C@@H]1CCC(C)=C[C@H]1c1c(O)cc(CCCCC)cc1O [CBD, cannabidiol, reference compound]
[1]; [3]
  Cmax: 282 ng/mL
[1]; [4]
  AUC(0-t): 908 ± 528 ng·h/mL
  Tmax: 2 h
  half-life: 2.1 ± 1.1 h
[1]; cats, mean ± SD
  Css Ave (calculated predicted 5 half-life mean serum concentration): 102.1 ± 46.3 ng/mL
[2]
  predicted steady state (Css Ave) versus actual serum concentration: predicted concentration was higher than the actual concentration

## C=C(C)[C@@H]1CCC(C)=C[C@H]1c1c(O)cc(CCCCC)c(C(=O)O)c1O [CBDA, cannabidiolic acid]
[1]; [3]
  Cmax: 1010 ng/mL
[1]; [4]
  AUC(0-t): 2640 ± 1280 ng·h/mL
  Cmax: 1010 ± 495 ng/mL
  Tmax: 1.6 ± 1.1 h
[1]; cats, mean ± SD
  Css Ave (calculated predicted 5 half-life mean serum concentration): 204.5 ± 87.8 ng/mL
[2]
  predicted steady state (Css Ave) versus actual serum concentration: predicted concentration was higher than the actual concentration

## CCCCCc1cc(O)c(C/C=C(\C)CCC=C(C)C)c(O)c1 [CBG, cannabigerol]
[1]; both, in vivo, po
  AUC(0-t): 11.4 ± 2.8 ng·h/mL
  Cmax: 4.35 ± 1 ng/mL
  MRT: 2.3 ± 0.1 h
  Tmax: 2 h
  half-life: 0.9 ± 0.1 h

## CCCCCc1cc(O)c(C/C=C(\C)CCC=C(C)C)c(O)c1C(=O)O [CBGA, cannabigerolic acid]
[1]; [4]
  AUC(0-t): 34.1 ± 9.5 ng·h/mL
  Cmax: 19.7 ± 5.5 ng/mL
  MRT: 1.5 ± 0.2 h
  Tmax: 1 ± 0.2 h
  half-life: 0.7 ± 0.1 h
[1]; cats, mean ± SD
  Css Ave (calculated predicted 5 half-life mean serum concentration): 4.8 ± 1.3 ng/mL
[2]
  predicted steady state (Css Ave) versus actual serum concentration: predicted concentration was higher than the actual concentration

## CCCCCc1cc(O)c2c(c1)OC(C)(C)c1ccc(C)cc1-2 [CBN, cannabinol]
[1]; cats, serum
  detectability in serum of cats at any time point: either below the detectable limit for the analyte or less than half of the population showed any appreciable concentration

## CCCCCc1cc(O)c2c(c1)OC(C)(C)[C@@H]1CCC(C(=O)O)=C[C@@H]21 [COOH-THC, COOH-tetrahydrocannabinol]
[1]; cats, serum
  detectability in serum of cats at any time point: either below the detectable limit for the analyte or less than half of the population showed any appreciable concentration

## CCCCCc1cc(O)c2c(c1)OC(C)(C)[C@H]1CCC(C(=O)O[C@@H]3O[C@H](C(=O)O)[C@@H](O)[C@H](O)[C@H]3O)=C[C@H]21 [COOH-THC-glu, COOH-glucuroniated tetrahydrocannabinol]
[1]; cats, serum
  detectability in serum of cats at any time point: either below the detectable limit for the analyte or less than half of the population showed any appreciable concentration

## CCCCCc1cc(O)c2c(c1)OC(C)(C)[C@@H]1CCC(C)=C[C@@H]21 [THC, Δ9-tetrahydrocannabinol, reference compound]
[1]; cats, mean ± SD
  Css Ave (calculated predicted 5 half-life mean serum concentration): 11.9 ± 5.2 ng/mL
[1]; cats, serum
  detectability in serum of cats at any time point: either below the detectable limit for the analyte or less than half of the population showed any appreciable concentration
[1]; [5]
  AUC(0-t): 156.5 ± 65.8 ng·h/mL
[1]; [6]
  Cmax: 40.9 ± 12.9 ng/mL
  MRT: 3.7 ± 0.4 h
  T1/2 el: 1.6 ± 0.4 h
  Tmax: 2 ± 0 h
[2]
  predicted steady state (Css Ave) versus actual serum concentration: predicted concentration was higher than the actual concentration

## CCCCCc1cc2c(c(O)c1C(=O)O)C1C=C(C)CCC1C(C)(C)O2 (centres unmarked) [THCA, Δ9-tetrahydrocannabinolic acid]
[1]; cats, mean ± SD
  Css Ave (calculated predicted 5 half-life mean serum concentration): 43.3 ± 13.9 ng/mL
[1]; [5]
  AUC(0-t): 434.0 ± 229.1 ng·h/mL
[1]; [6]
  Cmax: 87.9 ± 34.0 ng/mL
  MRT: 5.5 ± 2.1 h
  T1/2 el: 3.8 ± 1.3 h
  Tmax: 2 ± 0.9 h
[2]
  predicted steady state (Css Ave) versus actual serum concentration: no different
